Source: ChEMBL document CHEMBL1201862, “PubChem BioAssay data set” (2004)
Calls of active or inactive are those of the source. For most assays here, no stated cut-off is given here; in the data, actives have a measured EC50 and inactives only a lower limit.

Tests used:
Vero = experiment: cells; assay type: functional; settings: Chlorocebus sabaeus
[1] = inhibitors of firefly luciferase expression or activity, dose response, H4 neuroglioma cells, luminescence (AID 1990); assay type: functional, cell-based
[2] = Luminescence Cell-Based Dose Response HTS to Identify Inhibitors of 5'UTR Stem-Loop Driven Prion Protein mRNA Translation in H4 Neuroglioblastoma Cells. [Related pubchem assays: 1827 (Project Summary), 1813 (Primary HTS)]; assay type: functional
[3] = inhibitors of SNCA 5'UTR-driven reporter translation, confirmation, H4 neuroglioma cells, luminescence (AID 1988); assay type: functional, cell-based
Cytochrome P450 3A4 = Cytochrome P450 3A4 (Homo sapiens, UniProt P08684);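 further: CYP3A4 tested as one member of a cytochrome P450 panel screen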
BJ [4] = experiment: cytotoxicity toward BJ-TERT fibroblasts, dose response, cell-based, RAS-independent, luminescence (AID 1933); assay type: functional; settings: Homo sapiens
BJ [5] = experiment: cells; assay type: functional, cell-based; settings: Homo sapiens
BJ [6] = experiment: cytotoxicity toward BJ-TERT-LT-ST fibroblasts, dose response, cell-based, RAS-independent, luminescence (AID 1935); assay type: functional; settings: Homo sapiens;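 further: BJ fibroblasts immortalized with TERT plus LT and ST oncogenes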
[7] = cytotoxicity toward DRD oncogenic fibroblasts, dose response, cell-based, non-viral oncogenic, luminescence (AID 1934); assay type: functional; settings: Homo sapiens
Cytochrome P450 2D6 = Cytochrome P450 2D6 (Homo sapiens, UniProt P10635);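 further: CYP2D6 member of a cytochrome P450 panel assay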
[8] = biological target: T1, Microphthalmia-associated transcription factor (Homo sapiens, UniProt O75030); experiment: TRPM1 promoter luciferase signal decrease, dose response, MITF inhibitor project, cell-based, SK-MEL-5, cherry-picked, set 3 (AID 493073); assay type: functional
T1 sequence (O75030 whole entry): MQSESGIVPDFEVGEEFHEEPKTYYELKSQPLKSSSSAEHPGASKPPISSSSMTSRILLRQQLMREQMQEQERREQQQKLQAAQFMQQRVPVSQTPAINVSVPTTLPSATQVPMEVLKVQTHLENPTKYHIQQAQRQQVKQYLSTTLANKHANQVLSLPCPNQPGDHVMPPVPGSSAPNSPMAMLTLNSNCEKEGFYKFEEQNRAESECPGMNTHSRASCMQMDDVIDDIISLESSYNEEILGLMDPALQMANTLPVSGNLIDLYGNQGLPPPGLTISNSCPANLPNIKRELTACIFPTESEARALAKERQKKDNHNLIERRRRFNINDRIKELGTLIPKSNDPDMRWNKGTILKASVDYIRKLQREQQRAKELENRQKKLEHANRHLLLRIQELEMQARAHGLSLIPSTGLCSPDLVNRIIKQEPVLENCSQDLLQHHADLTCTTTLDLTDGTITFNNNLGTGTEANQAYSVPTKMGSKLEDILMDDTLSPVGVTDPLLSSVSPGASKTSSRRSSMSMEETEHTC

H9c2 = experiment: cells; assay type: functional, cell-based; settings: Rattus norvegicus, H9c2, Myocardium;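 further: confirmatory concentration-response retest of ultra-high-throughput screening hits for modulation of myocardial damage; cell death induced by hydrogen peroxide oxidative stress; compound pretreatment for 60 min then peroxide exposure for 2 h; potency is for protecting the cells against peroxide damage rather than for killing them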
Cytochrome P450 2C9 = Cytochrome P450 2C9 (Homo sapiens, UniProt P11712)
[9] = test system: Streptococcus sp. 'group A'; experiment: growth inhibition of control SK(-) GAS strain, dose response, counter-screen for streptokinase expression inhibitor project, luminescence, kanamycin, BacTiterGlo, confirmation (AID 1900); assay type: functional, organism-based
Streptokinase A = biological target: T2, Streptokinase A (Streptococcus pyogenes serotype M1, UniProt P10520); experiment: S. pyogenes streptokinase expression inhibitors, potency, dose response, plasminogen activation absorbance, OD405 (AID 1914); assay type: functional, Streptococcus pyogenes M1 GAS;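 further: secreted streptokinase activity via plasminogen activation per viability signal from cell pellet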
T2 sequence (P10520 whole entry): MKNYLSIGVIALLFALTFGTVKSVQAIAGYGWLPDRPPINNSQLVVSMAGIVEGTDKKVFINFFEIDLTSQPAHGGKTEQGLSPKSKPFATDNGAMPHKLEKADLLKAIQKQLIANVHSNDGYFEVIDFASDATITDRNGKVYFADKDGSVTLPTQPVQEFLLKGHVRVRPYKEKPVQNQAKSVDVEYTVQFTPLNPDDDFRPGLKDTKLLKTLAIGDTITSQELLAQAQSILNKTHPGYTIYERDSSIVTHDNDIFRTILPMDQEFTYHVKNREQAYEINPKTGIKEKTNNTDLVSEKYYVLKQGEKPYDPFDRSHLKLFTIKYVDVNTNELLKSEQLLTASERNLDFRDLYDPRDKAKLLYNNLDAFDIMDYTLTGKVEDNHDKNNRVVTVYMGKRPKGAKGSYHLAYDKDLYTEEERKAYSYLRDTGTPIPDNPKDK

Streptococcus = experiment: Group A Streptococcus viability loss, dose response, counter-screen for streptokinase expression inhibitor project, luminescence, BacTiterGlo (AID 1915); assay type: functional, organism-based;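 further: potency for reduction of bacterial viability or growth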
Paired box protein Pax-8 = Paired box protein Pax-8 (Homo sapiens, UniProt Q06710); experiment: inhibitors of PAX8-driven TPO luciferase reporter, dose response, RMG-I cells, cherry-pick (AID 687027); assay type: functional, cell-based;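 further: luciferase reporter driven by Pax8 target thyroperoxidase promoter measured by SteadyGlo luminescence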
[10] = biological target: Luciferin 4-monooxygenase (Photinus pyralis, UniProt P08659); experiment: firefly luciferase enzyme inhibitors, dose response, biochemical, luminescence (AID 1891)
[11] = Luminescence Cell-Based Dose Confirmation HTS to Identify Inhibitors of Platelet Dense Granule Release. [Related pubchem assays: 1663 (Primary HTS), 1678 (Summary of Project)]; assay type: functional
[12] = Shn3 3'UTR reporter inhibitors, dose response, cell-based, Clone20 osteoblasts, firefly luciferase, cherry-picked (AID 624132); assay type: functional;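 further: firefly luciferase luminescence from reporter carrying the Shn3 3'UTR in osteoblasts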
[13] = inhibitors of intracellular T. cruzi replication, confirmation, NIH3T3 host cells, beta-gal luminescence (AID 2044); assay type: functional, cell-based;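 further: intracellular parasites grown in NIH/3T3 mouse fibroblasts as host cells; luminescent beta-galactosidase reporter signal from transgenic T. cruzi replicating inside host cells; inhibitors lower the luminescence signal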
[14] = cytotoxicity toward NIH3T3 fibroblasts, dose response, counter-screen, cell-based, ATP luminescence, mouse fibroblasts (AID 2010); assay type: functional;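 further: cells exposed to compound for about 90 hours before reading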
INS1 = experiment: beta cell apoptosis inhibitors, cytokine rescue, dose response, luminescence, retest (AID 449756); assay type: functional, cell-based; settings: Rattus norvegicus;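 further: cell death triggered by IL-1 beta plus TNF-alpha plus IFN-gamma mixture; protective hits raise ATP signal compared with cytokine alone wells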

Chain of Cytochrome P450 3A4 (P08684 whole entry): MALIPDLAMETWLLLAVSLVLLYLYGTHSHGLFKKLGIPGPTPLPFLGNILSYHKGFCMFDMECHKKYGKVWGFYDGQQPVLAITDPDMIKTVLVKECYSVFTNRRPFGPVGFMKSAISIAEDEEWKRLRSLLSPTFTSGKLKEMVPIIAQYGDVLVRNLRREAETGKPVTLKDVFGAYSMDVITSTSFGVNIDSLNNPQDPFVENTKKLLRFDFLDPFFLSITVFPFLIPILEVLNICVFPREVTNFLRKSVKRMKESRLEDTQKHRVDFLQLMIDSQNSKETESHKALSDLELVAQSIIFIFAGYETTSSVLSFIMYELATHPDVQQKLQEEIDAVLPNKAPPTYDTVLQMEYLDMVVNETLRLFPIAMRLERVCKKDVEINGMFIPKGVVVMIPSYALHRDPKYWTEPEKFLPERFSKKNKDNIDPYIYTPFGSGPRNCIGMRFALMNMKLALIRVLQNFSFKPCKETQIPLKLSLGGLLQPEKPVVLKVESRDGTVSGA
Chain of Paired box protein Pax-8 (Q06710 whole entry): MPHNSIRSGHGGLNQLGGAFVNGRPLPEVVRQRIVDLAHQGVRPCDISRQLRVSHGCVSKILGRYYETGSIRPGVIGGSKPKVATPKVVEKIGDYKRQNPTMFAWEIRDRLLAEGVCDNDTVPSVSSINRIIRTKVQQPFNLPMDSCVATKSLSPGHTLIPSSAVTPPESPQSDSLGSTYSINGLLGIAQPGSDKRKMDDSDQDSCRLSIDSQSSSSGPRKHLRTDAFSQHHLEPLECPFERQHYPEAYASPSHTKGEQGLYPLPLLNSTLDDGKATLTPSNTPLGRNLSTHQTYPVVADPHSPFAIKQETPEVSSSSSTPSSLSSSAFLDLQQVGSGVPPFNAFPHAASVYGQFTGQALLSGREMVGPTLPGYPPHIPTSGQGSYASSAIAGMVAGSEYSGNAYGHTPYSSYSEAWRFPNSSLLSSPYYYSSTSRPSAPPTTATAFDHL
Chain of Cytochrome P450 2C9 (P11712 whole entry): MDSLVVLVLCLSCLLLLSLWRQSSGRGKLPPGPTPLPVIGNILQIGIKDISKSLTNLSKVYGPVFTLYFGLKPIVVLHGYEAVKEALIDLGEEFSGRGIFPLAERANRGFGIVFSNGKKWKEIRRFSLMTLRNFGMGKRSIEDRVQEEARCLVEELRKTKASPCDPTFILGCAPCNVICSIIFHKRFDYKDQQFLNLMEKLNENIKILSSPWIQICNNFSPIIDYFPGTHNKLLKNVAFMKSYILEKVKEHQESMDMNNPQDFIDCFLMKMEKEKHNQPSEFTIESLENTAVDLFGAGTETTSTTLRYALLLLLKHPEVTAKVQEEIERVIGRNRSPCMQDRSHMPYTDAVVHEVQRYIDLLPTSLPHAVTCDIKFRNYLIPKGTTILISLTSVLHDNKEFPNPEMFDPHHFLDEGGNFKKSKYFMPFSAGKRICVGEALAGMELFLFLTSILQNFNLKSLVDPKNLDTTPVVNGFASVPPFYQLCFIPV
Chain of Cytochrome P450 2D6 (P10635 whole entry): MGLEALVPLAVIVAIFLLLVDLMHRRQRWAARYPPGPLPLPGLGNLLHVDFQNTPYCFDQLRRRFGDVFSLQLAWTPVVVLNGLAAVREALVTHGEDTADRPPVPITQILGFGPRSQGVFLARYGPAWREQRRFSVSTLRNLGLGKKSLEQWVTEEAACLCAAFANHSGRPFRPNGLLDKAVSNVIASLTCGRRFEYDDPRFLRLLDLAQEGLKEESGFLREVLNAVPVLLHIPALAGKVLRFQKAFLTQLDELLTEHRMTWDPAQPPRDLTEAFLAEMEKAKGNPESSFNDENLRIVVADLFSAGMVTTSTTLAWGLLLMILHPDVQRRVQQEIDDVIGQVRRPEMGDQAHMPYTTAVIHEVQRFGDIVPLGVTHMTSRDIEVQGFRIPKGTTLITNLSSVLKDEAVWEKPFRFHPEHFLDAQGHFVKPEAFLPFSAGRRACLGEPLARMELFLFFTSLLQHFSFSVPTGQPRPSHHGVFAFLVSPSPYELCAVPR
Chain of Luciferin 4-monooxygenase (P08659 whole entry): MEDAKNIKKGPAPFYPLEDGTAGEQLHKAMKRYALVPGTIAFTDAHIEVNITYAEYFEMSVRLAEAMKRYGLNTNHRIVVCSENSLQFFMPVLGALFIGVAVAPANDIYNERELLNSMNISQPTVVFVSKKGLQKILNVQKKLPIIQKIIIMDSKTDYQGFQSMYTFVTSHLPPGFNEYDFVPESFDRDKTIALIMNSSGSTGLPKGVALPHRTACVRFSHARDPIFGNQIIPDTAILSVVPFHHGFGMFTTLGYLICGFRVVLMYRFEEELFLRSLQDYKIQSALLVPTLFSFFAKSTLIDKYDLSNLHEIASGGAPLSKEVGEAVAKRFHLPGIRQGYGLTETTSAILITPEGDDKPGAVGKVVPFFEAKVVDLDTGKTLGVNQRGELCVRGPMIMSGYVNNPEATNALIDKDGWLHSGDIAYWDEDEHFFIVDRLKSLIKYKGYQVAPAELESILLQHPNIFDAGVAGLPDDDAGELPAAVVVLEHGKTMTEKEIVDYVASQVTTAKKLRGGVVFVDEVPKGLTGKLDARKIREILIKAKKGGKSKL

Cc1ccc(C(=O)N/C(=C\c2ccc(-c3cccc([N+](=O)[O-])c3)o2)C(=O)NCCCN2CCOCC2)cc1
CC50 (Vero): > 25 µM (active)

Cc1ccc(Cn2c(SCc3cccnc3)nc3c2c(=O)n(C)c(=O)n3C)cc1
EC50 [1]: > 120 µM (not active)
EC50 [2]: > 120 µM (not active)
EC50 [3]: > 120 µM (not active)

C/C(=N\NC(=S)Nc1ccc(F)cc1)C1CC1
AC50 (Cytochrome P450 3A4): 14.1 µM (inconclusive)

CSc1nsc(SCc2ccc(Cl)cc2)n1
EC50 (BJ [4]): > 150 µM (not active)
EC50 (BJ [5]): > 150 µM (not active)
EC50 (BJ [6]): > 150 µM (inconclusive)
EC50 [7]: > 150 µM (not active)

Cc1cc(NC(=O)CSc2nnc(C3CC3)n2N)no1
EC50 [1]: > 120 µM (not active)
EC50 [2]: > 120 µM (not active)
EC50 [3]: > 120 µM (not active)

COc1cc2cc3c4cc(OC)c(OC)cc4cc[n+]3c(C)c2cc1OC
AC50 (Cytochrome P450 3A4): 10 µM (inconclusive)

COc1ccccc1-c1nc(Nc2ccncc2)c2ccccc2n1
AC50 (Cytochrome P450 2D6): 25.1 µM (inconclusive)
AC50 (Cytochrome P450 3A4): 3.16 µM (inconclusive)

c1ccc(C[n+]2cccc3c4ccccc4ccc32)cc1
AC50 [8]: 3.41 µM (active)

COc1ccc(CCNC(=O)C(=O)NCC2CCCN2S(=O)(=O)c2ccccc2)cc1OC (stereo unspecified)
IC50 (H9c2): > 79 µM (inactive)

Oc1c(/C=N/c2cccc(C(F)(F)F)c2)cnn1-c1cccc(Cl)n1
AC50 (Cytochrome P450 3A4): 25.1 µM (inconclusive)
AC50 (Cytochrome P450 2C9): 10 µM (inconclusive)

COc1ccc(/C=C/C(=O)NC(=S)NNC(=O)[C@H]2C[C@@H]2c2ccccc2)cc1OC
EC50 [9]: 0.57 µM (active)
EC50 (Streptokinase A): > 150 µM (not active)
EC50 (Streptococcus): 20.4 µM (active)
CC50 (Vero): > 25 µM (active)

C[C@@H]1CCCCO[C@H](CN(C)S(=O)(=O)c2cccs2)[C@H](C)CN([C@@H](C)CO)C(=O)c2cc(NC(=O)CCC(F)(F)F)ccc2O1
AC50 (Paired box protein Pax-8): 27.6 µM (active)

COC(=O)c1ccccc1NC(=O)c1ccc2nccnc2c1
IC50 (H9c2): 13.3 µM (active)

COCCn1ccc2c(OCC(=O)Nc3ccccc3OC)cccc2c1=O
IC50 (H9c2): > 79 µM (inactive)

COc1cccc(-c2nn3c(-c4ccco4)nnc3s2)c1
IC50 (H9c2): > 79 µM (inactive)

O=C(CCCN1C(=O)/C(=C/c2ccccc2OC(F)F)SC1=S)Nc1cccnc1
CC50 (Vero): 8.53 µM (active)
AC50 (Paired box protein Pax-8): 7.19 µM (active)

Cn1cc(CN(CCO)Cc2cccs2)c(-c2cccc(Cl)c2)n1
EC50 [10]: > 112 µM (not active)
EC50 [11]: > 112 µM (not active)
AC50 [12]: 3.25 µM (active)

COc1ccccc1-c1cc(NC=O)c2ncc(-c3cccc(C(C)=O)c3)n2c1
IC50 (H9c2): 10 µM (active)

COc1ccc(-c2csc(Cc3nnc(N4CCOCC4)n3-c3ccccc3)n2)cc1OC
EC50 [1]: > 120 µM (not active)
EC50 [2]: > 120 µM (not active)
EC50 [3]: 19.4 µM (active)

Cc1nn(C)c(C)c1/C=C(/C(=O)C(C)(C)C)n1cncn1
EC50 [2]: > 120 µM (not active)
EC50 [3]: > 120 µM (not active)

Nc1ncnc(N(c2ccccc2)C2CCCCC2)c1[N+](=O)[O-]
AC50 (Cytochrome P450 3A4): 6.31 µM (inconclusive)

COc1cc(OC)cc(C(=O)Nc2ccc(-c3nc4ccccc4o3)cc2)c1
EC50 [13]: 1.06 µM (active)
EC50 [14]: > 16 µM (not active)
IC50 (H9c2): > 79 µM (inactive)

COc1cc(-c2cc3nc4ccccc4n3c(N)c2C#N)cc(OC)c1OC
EC50 [1]: 17.2 µM (active)
EC50 [2]: 16.4 µM (active)
EC50 [3]: > 120 µM (not active)

CCN1CCc2c(sc(NC(=O)c3ccc(S(=O)(=O)N4CCCCCC4)cc3)c2C(=O)NC)C1
AC50 [8]: 16.6 µM (active)

CCOC(=O)CC1(C)NC(C(=O)O)C(C)(C)S1 (stereo unspecified)
CC50 (Vero): > 25 µM (active)

Cc1ccc(-n2nc3c(=O)n(CCCC(=O)NCc4ccco4)nc(C)c3c2C)cc1
EC50 [1]: 17.1 µM (active)
EC50 [2]: 43 µM (active)
EC50 [3]: > 120 µM (not active)

CC(OC(=O)Cn1[nH]c(=O)c2ccccc2c1=O)C(=O)Nc1cccc(Cl)c1 (stereo unspecified)
IC50 (H9c2): > 79 µM (inactive)

O=C1NC(=O)C(=CNc2ccccc2[N+](=O)[O-])C(=O)N1
EC50 [1]: > 120 µM (not active)
EC50 [2]: 20.7 µM (active)
EC50 [3]: > 120 µM (not active)

O=C1NC(c2cccs2)Nc2ccccc21 (stereo unspecified)
IC50 (H9c2): 18.2 µM (active)

O=C1NC(=S)NC(=O)C1=Cc1c[nH]c2ccccc12
CC50 (Vero): > 25 µM (active)

COc1ccc(Nc2nc(-c3sc(C)nc3C)cs2)c(OC)c1
EC50 (BJ [4]): 62.3 µM (active)
EC50 (BJ [5]): 4.21 µM (inconclusive)
EC50 (BJ [6]): > 150 µM (inconclusive)
EC50 [7]: 4.81 µM (active)

COc1ccc(N(Cc2cc3cc(OC)ccc3nc2O)C(=O)c2cccnc2)cc1
IC50 (H9c2): > 79 µM (inactive)

CCOC(=O)CCCc1c[nH]c2ccccc12
AC50 (Cytochrome P450 3A4): 31.6 µM (inconclusive)

COCCn1c(=O)cnc2cnc(Oc3ccc(OC)cc3)nc21
AC50 (Cytochrome P450 3A4): 15.8 µM (inconclusive)

O=C(N/N=C/c1ccccc1O)C1CC(=O)N(c2ccc(Cl)cc2)C1 (stereo unspecified)
EC50 [1]: 15.2 µM (active)
EC50 [2]: 24.1 µM (active)
EC50 [3]: 7.99 µM (active)
AC50 (INS1): 3.69 µM (active)

O=C(c1ccco1)N1CCC2(CCCN(Cc3ccccc3)C2)CC1
AC50 (Cytochrome P450 3A4): 12.6 µM (inconclusive)

O=C(NCC1CCCO1)c1onc(CSc2ccccc2F)c1C(=O)O (stereo unspecified)
AC50 (Cytochrome P450 3A4): 25.1 µM (inconclusive)
AC50 (Cytochrome P450 2C9): 6.31 µM (inconclusive)

COc1ccc(OC)c(C(=O)/C=C/c2cccnc2)c1
CC50 (Vero): 17 µM (active)
